Data: patent US10294202B2, “Pyrrolidinones as herbicides” (FMC Corporation, priority 2013, dated 2019)

How the values were obtained:
galium = experiment: Test C pre-/postemergence herbicide test; assay type: in vivo, Galium aparine
Procedure, shortened: (§1)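 Compound solutions contained surfactant in a non-phytotoxic solvent. These were sprayed onto pots of loam/sand sown with seeds, and onto young plants (2 to 18 cm, 1- to 4-leaf) in sphagnum peat–vermiculite mix. Visual injury scores (0 none, 100 complete control) were recorded after 13 to 15 days.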

lambsquarters = experiment: Test C pre-/postemergence herbicide test; assay type: in vivo, Chenopodium album
Procedure, shortened: as §1

oat, wild = experiment: Test C pre-/postemergence herbicide test; assay type: in vivo, Avena fatua; settings: Postemergence
Procedure, shortened: as §1

pigweed = experiment: Test A pre-/postemergence herbicide test; assay type: in vivo, Amaranthus retroflexus
Procedure, shortened: (§2)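 Formulated compound (non-phytotoxic solvent, surfactant) sprayed pre- onto soil of seeded loam/sand pots or post- onto seedlings at 1–2 leaves; ~10 d greenhouse; 0–100 visual control rating versus untreated.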

waterhemp = experiment: Test C pre-/postemergence herbicide test; assay type: in vivo, Amaranthus rudis
Procedure, shortened: as §1

foxtail, giant = experiment: Test C pre-/postemergence herbicide test; assay type: in vivo, Setaria faberii
Procedure, shortened: as §1

velvetleaf = experiment: Test C pre-/postemergence herbicide test; assay type: in vivo, Abutilon theophrasti
Procedure, shortened: as §1

barnyardgrass [1] = experiment: Test C pre-/postemergence herbicide test; assay type: in vivo, Echinochloa crus-galli
Procedure, shortened: as §1

giant foxtail = experiment: Test A pre-/postemergence herbicide test; assay type: in vivo, Setaria faberii
Procedure, shortened: as §2

barnyardgrass [2] = experiment: Test A pre-/postemergence herbicide test; assay type: in vivo, Echinochloa crus-galli
Procedure, shortened: as §2

morningglory = experiment: Test C pre-/postemergence herbicide test; assay type: in vivo, Ipomoea coccinea
Procedure, shortened: as §1

crabgrass, large = experiment: Test C pre-/postemergence herbicide test; assay type: in vivo, Digitaria sanguinalis
Procedure, shortened: as §1

[3] = Postemergence, 31 g ai/ha, scale 0 to 100 (0 no effect, 100 complete control)
[4] = Postemergence, 62 g ai/ha, scale 0 (no effect) to 100 (complete control)
[5] = Postemergence, 125 g ai/ha, scale 0 to 100 (0 no effect, 100 complete control)
[6] = Postemergence, 250 g ai/ha, scale 0 to 100 (0 no effect, 100 complete control)
[7] = Preemergence, 31 g ai/ha, scale 0 to 100, 0 is no effect and 100 is complete control
[8] = Preemergence, 62 g ai/ha, scale 0 to 100 (0 no effect, 100 complete control)
[9] = Preemergence, 125 g ai/ha, scale 0 to 100 (0 no effect, 100 complete control)
[10] = Postemergence, 500 g ai/ha, 0 to 100 scale (0 no effect, 100 complete control)
[11] = Preemergence, 125 g ai/ha, 0 to 100 scale where 0 is no effect and 100 is complete control
[12] = preemergence, 500 g ai/ha, 0 to 100 scale, 0 is no effect and 100 is complete control
[13] = Postemergence, 125 g ai/ha, 0 to 100 scale, 0 is no effect, 100 is complete control

O=C1NCC(c2cc(F)cc(F)c2)C1C(=O)Nc1cccc(F)c1F (racemic) [Compound 279]
Plant response rating, Galium (galium; [3]): 0
Plant response rating, Galium (galium; [4]): 15
Plant response rating, Galium (galium; [5]): 30
Plant response rating, Galium (galium; [6]): 30
Galium plant response rating (galium; [7]): 0
Galium plant response rating (galium; [8]): 0
Plant response rating, Galium (galium; [9]): 85
Plant response rating (scale of 0 to 100), Galium (galium; Preemergence, 250 g ai/ha): 85
Plant response rating, Lambsquarters (lambsquarters; [3]): 0
Plant response rating, Lambsquarters (lambsquarters; [4]): 0
Plant response rating, Lambsquarters (lambsquarters; [5]): 45
Plant response rating, Lambsquarters (lambsquarters; [6]): 45
Lambsquarters plant response rating (lambsquarters; [7]): 0
Lambsquarters plant response rating (lambsquarters; [8]): 0
Plant response rating, Lambsquarters (lambsquarters; [9]): 65
Plant response rating (scale of 0 to 100), Lambsquarters (lambsquarters; Preemergence, 250 g ai/ha): 90
Plant response rating, Oat, Wild (oat, wild; 31 g ai/ha, scale 0 to 100 (0 no effect, 100 complete control)): 0
Plant response rating, Oat, Wild (oat, wild; 62 g ai/ha, scale 0 (no effect) to 100 (complete control)): 0
Plant response rating, Oat, Wild (oat, wild; 125 g ai/ha, scale 0 to 100 (0 no effect, 100 complete control)): 0
Plant response rating, Oat, Wild (oat, wild; 250 g ai/ha, scale 0 to 100 (0 no effect, 100 complete control)): 0
Plant response rating, Pigweed (pigweed; Postemergence, 125 g ai/ha, visual rating on 0 to 100 scale (0 no effect, 100 complete control), approx. 10 days): 0
Plant response rating, Pigweed (pigweed; [10]): 0
Plant response rating, Pigweed (pigweed; [11]): 0
Plant response rating, Pigweed (pigweed; [12]): 40
Plant response rating, Waterhemp (waterhemp; [3]): 5
Plant response rating, Waterhemp (waterhemp; [4]): 20
Plant response rating, Waterhemp (waterhemp; [5]): 15
Plant response rating, Waterhemp (waterhemp; [6]): 15
Waterhemp plant response rating (waterhemp; [7]): 0
Waterhemp plant response rating (waterhemp; [8]): 15
Plant response rating, Waterhemp (waterhemp; [9]): 55
Plant response rating (scale of 0 to 100), Waterhemp (waterhemp; Preemergence, 250 g ai/ha): 80
Plant response rating, Foxtail, Giant (foxtail, giant; [3]): 0
Plant response rating, Foxtail, Giant (foxtail, giant; [4]): 30
Plant response rating, Foxtail, Giant (foxtail, giant; [5]): 90
Plant response rating, Foxtail, Giant (foxtail, giant; [6]): 90
Foxtail, Giant plant response rating (foxtail, giant; [7]): 90
Foxtail, Giant plant response rating (foxtail, giant; [8]): 95
Plant response rating, Foxtail, Giant (foxtail, giant; [9]): 98
Plant response rating (scale of 0 to 100), Foxtail, Giant (foxtail, giant; Preemergence, 250 g ai/ha): 98
Plant response rating, Velvetleaf (velvetleaf; [3]): 0
Plant response rating, Velvetleaf (velvetleaf; [4]): 10
Plant response rating, Velvetleaf (velvetleaf; [5]): 10
Plant response rating, Velvetleaf (velvetleaf; [6]): 10
Velvetleaf plant response rating (velvetleaf; [7]): 0
Velvetleaf plant response rating (velvetleaf; [8]): 0
Plant response rating, Velvetleaf (velvetleaf; [9]): 0
Plant response rating (scale of 0 to 100), Velvetleaf (velvetleaf; Preemergence, 250 g ai/ha): 30
Plant response rating, Barnyardgrass (barnyardgrass [1]; [3]): 15
Plant response rating, Barnyardgrass (barnyardgrass [1]; [4]): 55
Plant response rating, Barnyardgrass (barnyardgrass [1]; [5]): 85
Plant response rating, Barnyardgrass (barnyardgrass [1]; [6]): 85
Barnyardgrass plant response rating (barnyardgrass [1]; [7]): 80
Barnyardgrass plant response rating (barnyardgrass [1]; [8]): 95
Plant response rating, Barnyardgrass (barnyardgrass [1]; [9]): 95
Plant response rating (scale of 0 to 100; 0 is no effect, 100 is complete control), Barnyardgrass (barnyardgrass [1]; Preemergence, 250 g ai/ha): 98
Plant response rating, Foxtail, Giant (giant foxtail; [13]): 80
Plant response rating, Foxtail, Giant (giant foxtail; [10]): 90
Plant response rating, Foxtail, Giant (giant foxtail; [11]): 90
Plant response rating, Foxtail, Giant (giant foxtail; [12]): 90
Plant response rating, Barnyardgrass (barnyardgrass [2]; [13]): 80
Plant response rating, Barnyardgrass (barnyardgrass [2]; [10]): 90
Plant response rating, Barnyardgrass (barnyardgrass [2]; [11]): 80
Plant response rating, Barnyardgrass (barnyardgrass [2]; [12]): 90
Plant response rating, Morningglory (morningglory; [3]): 5
Plant response rating, Morningglory (morningglory; [4]): 60
Plant response rating, Morningglory (morningglory; [5]): 30
Plant response rating, Morningglory (morningglory; [6]): 25
Morningglory plant response rating (morningglory; [7]): 0
Morningglory plant response rating (morningglory; [8]): 0
Plant response rating, Morningglory (morningglory; [9]): 10
Plant response rating (scale of 0 to 100), Morningglory (morningglory; Preemergence, 250 g ai/ha): 10
Plant response rating, Crabgrass, Large (crabgrass, large; [3]): 25
Plant response rating, Crabgrass, Large (crabgrass, large; [4]): 65
Plant response rating, Crabgrass, Large (crabgrass, large; [5]): 70
Plant response rating, Crabgrass, Large (crabgrass, large; [6]): 80
Crabgrass, Large plant response rating (crabgrass, large; [7]): 95
Crabgrass, Large plant response rating (crabgrass, large; [8]): 95
Plant response rating, Crabgrass, Large (crabgrass, large; [9]): 98
Plant response rating (scale of 0 to 100), Crabgrass, Large (crabgrass, large; Preemergence, 250 g ai/ha): 100
